Laboratory results: patent US9365597B2, “Mitochondria-targeted inhibitors of cytochrome c peroxidase for protection from apoptosis” (Brock University, priority 2011, dated 2016)
“Also recorded” adds a separate entry of the source. Read-outs that look alike come from different tables or passages of the source.

Key:
cyt c/TOCL complexes [1] = molecular target: T1, cyt c/TOCL complexes (Equus caballus, UniProt P00004); assay: Haem-nitrosylation of cyt c/TOCL by nitroxyl from Angeli's salt, EPR at 77 K; type: biochemical; conditions: Angeli's salt 500 μM, 30 min
T1 construct: purchased Sigma (St. Louis, Mo.)
T1 sequence (P00004 2-105 limits assumed, one chain of several): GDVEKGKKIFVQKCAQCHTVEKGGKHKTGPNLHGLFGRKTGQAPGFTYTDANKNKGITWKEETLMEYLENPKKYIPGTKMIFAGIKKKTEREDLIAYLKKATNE
Description: Heme nitrosylation: Cyt c (100 μM) was incubated with a nitroxyl donor, Angeli's salt (500 μM), for 30 min at room temperature. The reaction was stopped by freezing the samples in liquid nitrogen. The EPR spectra of heme-nitrosylated cyt c were measured at 77 K under the following instrumental settings: center field, 3200 G; scan range, 500 G; field modulation, 5 G; microwave power, 10 mW; time constant, 0.1 s; scan time, 4 min; receiver gain, 10^3.

mouse liver mitochondria = assay: Peroxidase activity of isolated mouse liver mitochondria (Amplex Red, tBOOH); type: biochemical; conditions: 0.6 mg/ml mitochondria, 100 μM Amplex Red, 2 mM tBOOH, 20 min
Description: Peroxidase activity of cyt c was assessed by oxidation of Amplex Red, etoposide or TLCL (tetra-linoleoyl-cardiolipin). Measurements of Amplex Red oxidation were performed using fluorescence of its oxidation product resorufin. Cyt c (1 μM) was incubated with tetra-oleoyl-cardiolipin (TOCL) containing liposomes (CL/cyt c ratio 25:1). Then 50 μM Amplex Red and 50 μM H2O2 were added, and the incubation proceeded for an additional 20 min. Fluorescence was detected by employing a “Fusion α” universal microplate analyzer and by using an excitation wavelength of 535 nm and an emission wavelength of 590 nm. EPR spectra of etoposide phenoxyl radicals were recorded at 25° C. in gas permeable Teflon tubings (inner diameter, 0.8 mm; thickness, 0.013; Alpha Wire Corp., Elizabeth, N.J.). Volume of samples was 60 μL. The spectra were recorded under the following conditions: 335.3 mT, center field; 2 mT, sweep width; 0.04 mT, field modulation; 10 mW, microwave power; 0.1 s, time constant; 2 min, time scan. […] Peroxidase activity of mitochondria was determined by the formation of resorufin from Amplex Red. […] After incubation at room temperature for 20 min, fluorescence of resurufin was measured.
Finally, the ability of ISA and IEOA to inhibit peroxidase activity using isolated mouse liver mitochondria was assessed. […]

cyt c/TOCL complexes [2] = molecular target: T1, cyt c/TOCL complexes; assay: Low-temperature (77 K) EPR of protein-immobilized (tyrosyl) radicals of cyt c/TOCL with H2O2; type: biochemical; conditions: cyt c 100 μM, H2O2 500 μM, EPR at 77 K
Description: EPR spectra of protein-immobilized (tyrosyl) radicals were recorded after the addition of H2O2 (500 μM) to cyt c (100 μM) incubated with tetra-oleoyl-cardiolipin (TOOL) liposomes at room temperature. After incubation for 20 s, the reaction was stopped by freezing the samples in liquid nitrogen. EPR spectra were obtained on a JEOL-REIX spectrometer with 100 kHz modulation (JEOL, Kyoto, Japan). EPR spectra from frozen samples were recorded at 77 K under the following conditions: center field, 3230 G; sweep width, 100 G; field modulation, 5 G; microwave power, 1 mW; receiver gain, 10^3; time constant, 0.1 s; time scan, 4 min.

cyt c/TOCL complexes [3] = molecular target: T1, cyt c/TOCL complexes; assay: Peroxidase activity of cyt c/TOCL complexes, H2O2-induced oxidation of Amplex Red to resorufin; type: biochemical; conditions: for inhibition of peroxidase activity of cyt c/TOCL complexes (Amplex Red oxidation): cyt c 1 μM, CL/cyt c 25:1, 50 μM Amplex Red, 50 μM H2O2, 20 min; for inhibition of cyt c peroxidase compared with TPP-ISA: ratio of compound to cyt c of 2.5:1, TOCL:cyt c 25:1
Description: Conditions: cyt c (1 μM), H2O2 (50 μM), Amplex Red (50 μM). Experiments were performed in 20 mM HEPES buffer (pH 7.4) containing DTPA (100 μM), cyt c was incubated with DOPC/TOCL liposomes (1:1) at a ratio of TOCL:cyt c of 25:1.
(§1) Peroxidase activity of cyt c was assessed by oxidation of Amplex Red, etoposide or TLCL (tetra-linoleoyl-cardiolipin). Measurements of Amplex Red oxidation were performed using fluorescence of its oxidation product resorufin. Cyt c (1 μM) was incubated with tetra-oleoyl-cardiolipin (TOCL) containing liposomes (CL/cyt c ratio 25:1). Then 50 μM Amplex Red and 50 μM H2O2 were added, and the incubation proceeded for an additional 20 min. Fluorescence was detected by employing a “Fusion α” universal microplate analyzer and by using an excitation wavelength of 535 nm and an emission wavelength of 590 nm. EPR spectra of etoposide phenoxyl radicals were recorded at 25° C. in gas permeable Teflon tubings (inner diameter, 0.8 mm; thickness, 0.013; Alpha Wire Corp., Elizabeth, N.J.). Volume of samples was 60 μL. The spectra were recorded under the following conditions: 335.3 mT, center field; 2 mT, sweep width; 0.04 mT, field modulation; 10 mW, microwave power; 0.1 s, time constant; 2 min, time scan. The time course of the etoposide radical EPR signal was obtained by repeated scanning of the field (0.15 mT, sweep width; 335.3 mT, center field) corresponding to a part of the EPR signal. Peroxidase activity of mitochondria was determined by the formation of resorufin from Amplex Red. Isolated mouse liver mitochondria (0.6 mg/ml) were incubated in the presence of 100 μM Amplex Red and 2 mM tert-butyl hydroperoxide (tBOOH). After incubation at room temperature for 20 min, fluorescence of resurufin was measured.
Small unilamellar liposomes were prepared from dioleoylphosphatidylcholine (DOPC) and TOCL (1:1 ratio) or DOPC and TLCL (4:1 ratio) by sonication in HEPES buffer (20 mM with 100 μM diethylene triamine pentaacetic acid (DTPA) (pH 7.4) 3×60 sec, relaxation time 2 min, 4° C.).
(§2) Peroxidase activity of cyt c was assessed by oxidation of Amplex Red, etoposide or TLCL as described above.

mouse embryonic cells = assay: Actinomycin D-induced cell death in mouse embryonic cells (Annexin V/PI); type: cell-based; conditions: 1 to 100 μM (BSA complexes), 100 ng ml^−1 ActD, 18 h
Description: IEOA or ISA were incubated in the presence of fatty acid-free bovine serum albumin (BSA) (Sigma) at a molar ratio of 5:1 at 37° C. for 30 min. Mouse embryonic cells were incubated with IEOA/BSA or ISA/BSA (100 μM) complexes for 30 min before the addition of 100 ng ml^−1 actinomycin D (ActD). After 18-h incubation with ActD, cell viability was analysed by flow cytometry using an Annexin V/PI kit. ActD-induced cell death in ˜34.2% of cells. […] Representative data with 100 μM IEOA/BSA and ISA/BSA complexes are shown. Data are means±s.d., n=3.

cyt c/TOCL complexes [4] = molecular target: T1, cyt c/TOCL complexes; assay: Peroxidase activity of cyt c/TOCL complexes, H2O2-induced oxidation of etoposide (EPR of phenoxyl radicals); type: biochemical; conditions: H2O2-driven oxidation of etoposide
Description: as §1, §2

cyt c/TOCL complex = molecular target: T2, cyt c/TOCL complex (Equus caballus, UniProt P00004); assay: Liquid-He (20 K) X-band EPR of haem-iron ligation, cyt c/TOCL complex; type: binding
T2 construct: purchased Sigma (St. Louis, Mo.)
T2 sequence (P00004 2-105 limits assumed, one chain of several): as above
Description: (§3) Conditions: native cyt c (300 μM), IEOA/cyt c (2:1), TOCL/IEOA/cyt c (20:2:1), 20 mM HEPES buffer, pH 7.4. Samples (200 μl) were placed in 3 mm o.d. suprasil quartz EPR tubes and frozen in liquid nitrogen for subsequent spectroscopic measurements. X-band (9 GHz) EPR spectra were recorded on a Bruker ESP 300 spectrometer equipped with an Oxford Instruments ESR 910 flow cryostat for ultra-low-temperature measurements. Spectra were recorded at 9.8 G modulation amplitude and 200 μW microwave power. The microwave frequency was calibrated by a frequency counter and the magnetic field was calibrated with a gaussmeter. The temperature was calibrated with carbon-glass resistors (CGR-1-1000) from LakeShore. This instrument and the software (SpinCount) to analyse the EPR spectra were provided by Professor Mike Hendrich, Carnegie Mellon University.

native ferri-cyt c = molecular target: T3, native ferri-cyt c (Equus caballus, UniProt P00004); assay: Liquid-He (20 K) X-band EPR of haem-iron ligation, native cyt c; type: binding; conditions: pH 7.4, 20 K, no TOCL
T3 construct: purchased Sigma (St. Louis, Mo.)
T3 sequence (P00004 2-105 limits assumed): as the sequence (P00004 2-105 limits assumed, one chain of several) above
Description: as §3

[5] = TPP-IOA levels in plasma, small intestine and bone marrow after i.p. injection (LC-MS/MS, SRM); type: in vivo; conditions: C57BL/6NTac, mouse, ip, 10 min after i.p. injection, 5 mg/kg body weight
Description: TPP-IOA and its hydrolysis products were extracted from plasma, small intestine and bone marrow tissue 10 min after TPP-IOA i.p. injection into animals (5 mg/kg body weight), using a standard Folch procedure for extraction of lipids^37. In one set of runs, intact TPP-IOA was assessed by SRM as described below. In an identical set of duplicate runs, hydrolyzed TPP-IOA (in the form of the TPP moiety, see below) was assessed by a different mass spectrometric method, MRM, as described below.
TPP-IOA (m/z 651) was assessed by SRM in a LCQ-Duo ion trap mass spectrometer (Thermo, Inc., Waltham, Mass.). Chromatography was performed on an Eclipse XDB reverse phase C18 column (4.6 mm×15 cm, Agilent Technologies, Santa Clara, Calif.) using an isocratic solvent system consisting of acetonitrile:water:triethylamine:acetic acid (450:50:2.5:2.5, v/v/v/v) and a flow rate of 0.4 ml/min. The transition measured was 651>303 (TPP-IOA to TPP-propyl moiety—water) within a 0.5 Da window. Instrument conditions were as follows: spray voltage, 4.5 kV, positive mode; sheath gas, 30; capillary temperature, 250° C.; tube lens, 20; capillary voltage, 26. The instrument was tuned for the appropriate parent ion and all parameters were optimized to maximize the transition during the SRM including tuning under appropriate flow conditions.

Row | Structure (SMILES) | EPR signal of haem-nitrosylated cyt c/TOCL (cyt c/TOCL complexes [1]) | peroxidase activity of isolated mouse liver mitochondria (mouse liver mitochondria) | H2O2-dependent generation of protein-immobilized (tyrosyl) radicals (cyt c/TOCL complexes [2]) | inhibition of peroxidase activity of cyt c/TOCL complexes (Amplex Red oxidation) (cyt c/TOCL complexes [3]) | protection against ActD-induced cell death (mouse embryonic cells) | inhibition of peroxidase activity of cyt c/TOCL complexes (etoposide oxidation, EPR) (cyt c/TOCL complexes [4]) | inhibition of cyt c peroxidase compared with TPP-ISA (cyt c/TOCL complexes [3]) | also measured
1 | CCCCCCC(C/C=C/CCCCCCCC(=O)O)n1ccnc1 (stereo not drawn) [IEOA, (E)-12-(1H-imidazol-1-ium-1-yl)octadec-9-enoic acid] | concentration-dependent decrease of the EPR signal | suppressed peroxidase activity in a concentration-dependent manner | effectively quenched generation of Tyr. radicals | potent inhibitors | exerted no protection against apoptosis; also recorded: no detectable protection | potent inhibitors | – | –
2 | CCCCCCC(CCCCCCCCCCC(=O)O)n1ccnc1 (stereo not drawn) [ISA, 12-(1H-imidazol-1-yl)octadecanoic acid] | concentration-dependent decrease of the EPR signal | suppressed peroxidase activity in a concentration-dependent manner | – | potent inhibitors | exerted no protection against apoptosis; also recorded: no detectable protection | potent inhibitors | – | change of haem-iron coordination in cyt c (Met80 substituted by imidazole moiety) (cyt c/TOCL complex): able to change haem-iron coordination in cyt c
3 | CCCCCCC(C/C=C\CCCCCCCC(=O)O)n1ccnc1 (stereo not drawn) [IOA, 12-(Imidazol-1-yl)-(Z)-9-octadecaenoate] | – | – | effectively quenched generation of Tyr. radicals | potent inhibitors | – | potent inhibitors | – | EPR spectrum (axial haem coordination) of native ferri-cyt c on addition of compound (native ferri-cyt c): no change in the EPR spectrum
4 | CCCCCCC(C/C=C\CCCCCCCC(=O)OCCC[P+](c1ccccc1)(c1ccccc1)c1ccccc1)n1ccnc1.[Br-] (stereo not drawn) [TPP-IOA, 9-(Z)-(3-(12-imidazol-1-yl)octadeca-9-enoyloxy)propyl)triphenylphosphonium bromide] | – | – | – | – | – | – | – | concentration at 10 min ([5]; bone marrow, read-out: TPP-IOA level in bone marrow): 0.2 ng/g; concentration at 10 min ([5]; plasma, read-out: TPP-IOA level in plasma): 54 ng/mL; concentration at 10 min ([5]; small intestine, read-out: TPP-IOA level in small intestine): 1.5 ng/g
5 | CCCCCCCCCCC(CCCCCCC(=O)OCCC[P+](c1ccccc1)(c1ccccc1)c1ccccc1)n1ccnc1.[Br-] (racemic) [TPP-8-imidazole-stearic acid, (3-((8-(1H-imidazol-1-yl)octadecanoyl)oxy)propyl)triphenylphosphonium bromide] | – | – | – | – | – | – | significantly better inhibitors of cyt c peroxidase than TPP-ISA | –
6 | CCCCCCCCCCCCC(CCCCC(=O)OCCC[P+](c1ccccc1)(c1ccccc1)c1ccccc1)n1ccnc1.[Br-] (racemic) [TPP-6-imidazole-stearic acid, (3-((6-(1H-imidazol-1-yl)octadecanoyl)oxy)propyl)triphenylphosphonium bromide] | – | – | – | – | – | – | significantly better inhibitors of cyt c peroxidase than TPP-ISA | –
